Laboratory results published in patent US20230172924A1, “THERAPEUTIC AGENT FOR BREAST CANCER” (Eisai R&D Management Co., Ltd., priority 2020, published 2023).

Experiments:
[1] = tested on: human-derived breast cancer cell line MCF-7-hCYP19A1; experiment: Cell number (CellTiter Glo 2.0 emission) of MCF-7-hCYP19A1 cells with Compound A and aromatase inhibitors; type: cell-based; details: Compound A 1,000 nmol/L, 7 days culture with androstenedione, FGF2, FGF10, n=3
[2] = tested on: human breast cancer patient-derived tumor (OD-BRE-0438); experiment: Antitumor effect of compound A and fulvestrant on OD-BRE-0438 patient-derived tumor subcutaneously transplanted in NOD-SCID mice; type: in vivo; details: fulvestrant 250 mg/kg s.c. days 0 and 7, combination both; for Average tumor volume after starting drug administration, Day 0: Day 0, compound A 25 mg/kg oral once a day; for Average tumor volume after starting drug administration, Day 4: Day 4, compound A 25 mg/kg oral once a day; for Average tumor volume after starting drug administration, Day 7: Day 7, compound A 25 mg/kg oral once a day; for Average tumor volume after starting drug administration, Day 11: Day 11, compound A 25 mg/kg oral once a day; for Average tumor volume after starting drug administration, Day 14: Day 14, compound A 25 mg/kg oral once a day
[3] = tested on: human-derived breast cancer cell line MCF-7-hCYP19A1; experiment: Antitumor effect of compound A and letrozole on subcutaneously transplanted MCF-7-hCYP19A1 tumor in ovariectomized BALB/c nude mice; type: in vivo; details: letrozole 0.01 mg/mouse, or both, oral once a day; for Average tumor volume after starting drug administration, Day 0: Day 0, compound A 25 mg/kg; for Average tumor volume after starting drug administration, Day 4: Day 4, compound A 25 mg/kg; for Average tumor volume after starting drug administration, Day 7: Day 7, compound A 25 mg/kg; for Average tumor volume after starting drug administration, Day 11: Day 11, compound A 25 mg/kg; for Average tumor volume after starting drug administration, Day 14: Day 14, compound A 25 mg/kg
[4] = Table 4, anastrozole 10,000 nmol/L or both
[5] = Table 5, anastrozole 2,000 nmol/L or both
[6] = Table 3, letrozole 2,000 nmol/L or both

## CC(C)(C#N)c1cc(Cn2cncn2)cc(C(C)(C)C#N)c1 [Anastrozole, anastrozole]
[1]; [4]
  Emission value (count per second): 1,443,072 count per second
[1]; [5]
  Emission value (count per second): 1,357,941 count per second

## CNC(=O)n1ccc2cc(Oc3ccnc(NC(=O)c4ccc(C5CCN(CCO)CC5)cc4)c3)c(OCCOC)cc21 [Compound A, 5-((2-(4-(1-(2-Hydroxyethyl)piperidin-4-yl)benzamide)pyridin-4-yl)oxy)-6-(2-methoxyethoxy)-N-methyl-1H-indole-1-carboxamide]
[2]
  Average tumor volume after starting drug administration, Day 0: 148.6 mm^3
  Average tumor volume after starting drug administration, Day 4: 192.6 mm^3
  Average tumor volume after starting drug administration, Day 7: 211.2 mm^3
  Average tumor volume after starting drug administration, Day 11: 216.5 mm^3
  Average tumor volume after starting drug administration, Day 14: 264.3 mm^3
[3]
  Average tumor volume after starting drug administration, Day 0: 130.7 mm^3
  Average tumor volume after starting drug administration, Day 4: 155.5 mm^3
  Average tumor volume after starting drug administration, Day 7: 182.4 mm^3
  Average tumor volume after starting drug administration, Day 11: 224.4 mm^3
  Average tumor volume after starting drug administration, Day 14: 267.5 mm^3
[1]; [6]
  Emission value (count per second): 1,242,509 count per second
[1]; [4]
  Emission value (count per second): 1,157,051 count per second
[1]; [5]
  Emission value (count per second): 1,157,051 count per second

## C[C@]12CC[C@@H]3c4ccc(O)cc4C[C@@H](CCCCCCCCC[S+]([O-])CCCC(F)(F)C(F)(F)F)[C@H]3[C@@H]1CC[C@@H]2O (some centres unmarked) [Fulvestrant, fulvestrant]
[2]
  Average tumor volume after starting drug administration, Day 0: 148.7 mm^3
  Average tumor volume after starting drug administration, Day 4: 172.2 mm^3
  Average tumor volume after starting drug administration, Day 7: 208.2 mm^3
  Average tumor volume after starting drug administration, Day 11: 207.4 mm^3
  Average tumor volume after starting drug administration, Day 14: 237.6 mm^3

## N#Cc1ccc(C(c2ccc(C#N)cc2)n2cncn2)cc1 [Letrozole, letrozole]
[3]
  Average tumor volume after starting drug administration, Day 0: 132.4 mm^3
  Average tumor volume after starting drug administration, Day 4: 147.3 mm^3
  Average tumor volume after starting drug administration, Day 7: 140.6 mm^3
  Average tumor volume after starting drug administration, Day 11: 159.6 mm^3
  Average tumor volume after starting drug administration, Day 14: 162.0 mm^3
[1]; [6]
  Emission value (count per second): 1,410,920 count per second
